# Measurements as given in paper PMC4589238, “Acute Biphasic Effects of Ayahuasca” (PLoS ONE, 2015).
# Where two headings read alike, the source gives them in different places.
# Key:
# human subjects = settings: cited from earlier work
# [1] = Plasma concentrations of ayahuasca compounds and metabolites after oral ayahuasca (LC/MS/MS); format: in vivo, human; set-up: AUC (mean ± sd): unit not given here; settings: for Cmax / Tmax: both sexes, human, in vivo; for Cmax: po
# Description: A sample of six liters of "Hoasca" was donated by the União do Vegetal (UDV) church in Brazil for the specific purpose of use in this study. Quantification of the main compounds in the brew was done with liquid chromatography-electrospray ionization-tandem mass spectrometry (LC/MS/MS). The screening included the following compounds: DMT, DMT‐N‐oxide (DMT-NO), N‐methyltryptamine (NMT), indoleacetic acid (IAA), 5‐hydroxy‐DMT (5-OH-DMT, or bufotenin), 5‐methoxy‐DMT (5-MeO-DMT), Harmine, Harmol, Harmaline, Harmalol, THH, 7‐hydroxy‐tetrahydroharmine (THH-OH), and 2‐methyl‐tetrahydro‐beta‐carboline (2-MTHBC). The original liquid volume was then reduced to 50% using a rotary evaporator to decrease the amount of liquid intake.
# Blood was collected in sterile EDTA containing tubes. Ten blood samples (3 mL each) were collected every 25 minutes, starting 25 minutes before ayahuasca ingestion and ending 200 minutes after ingestion (in a total of ten samples for each individual). Blood was collected by a professional nurse, with a catheter that remained in place during the entire time of the study. Each tube was carefully and slowly turned upside-down three times and then stored at 0°C until all ten samples were collected. Blood samples were then centrifuged at 2000 rpm for 10 min at 4°C and the resulting plasma immediately collected and frozen at -80°C. The frozen plasma samples were stored at -80°C until shipped on dry ice to USA for analysis according to [31]. Compounds included in this screening were DMT, DMT-NO, NMT, IAA, 5-OH-DMT (bufotenin), 5-MeO-DMT, Harmine, Harmol, Harmaline, Harmalol, THH, THH-OH and 2-MTHBC.
# Two volunteers opted out of blood collection, and data from one volunteer was discarded due to high hemolysis in the blood samples. Therefore data were available from 16 volunteers. Maximum plasma Concentration (Cmax), Time for maximum plasma concentration (Tmax) and area under the curve (AUC) of ten identified compounds are summarized in Table 2. […] No significant differences were found between men and women for any of the identified compounds in blood. […] There were no significant correlations between time to vomit and Cmax or AUC.
# 5HT-2A receptors = settings: cited from earlier work
# MAO-A = system: MAO-A; set-up: method as in PMID 19879939; settings: cited from earlier work
# healthy volunteers = assay: Association between plasma concentration and EEG spectral changes (generalized linear models); format: in vivo, human; settings: for Clusters between plasma concentration and EEG spectra: delta, theta and beta frequency bands
# Description: Relationships between plasma concentration of identified compounds and spectral changes in the six frequency bands evaluated were calculated by fitting generalized linear models (glmfit function in MATLAB) for each compound and frequency band. This analysis was followed by the non-parametric cluster based correction with 5000 permutations.
# Results were considered statistically significant when p <0.05. Effect sizes are also reported, using Partial eta squared (partial η^2) for the main frequency clusters and Cohen’s d for the generalized linear models.
# [2] = cited from earlier work
# rats = system: rats; set-up: method as in PMID 9649961; settings: cited from earlier work
# [3] = plasma, 16 volunteers, oral ayahuasca, sampling to 200 min, read-out: Cmax (mean ± sd)
# [4] = plasma, 16 volunteers, oral ayahuasca, read-out: Tmax (mean ± sd) (converted)
# [5] = plasma, 16 volunteers, oral ayahuasca
# [6] = one large widespread bilateral cluster
# [7] = plasma, 16 volunteers, oral ayahuasca, sampling to 200 min
# [8] = from ayahuasca ingestion, group average curve
# [9] = plasma, 16 volunteers, oral ayahuasca, read-out: Cmax (min—max)
Compound,"Cmax [1, 3] [ng/mL]","Tmax [1, 4] [h]","AUC (min—max) [1, 5] [g·min/mL]",Affinity for 5HT-2A receptors (5HT-2A receptors),Potency at inhibiting MAO-A relative to MAO-B (MAO-A),Clusters between plasma concentration and EEG spectra (healthy volunteers),"Cohen's d, plasma concentration vs fast-gamma power increase (healthy volunteers; [6])","Cohen's d, plasma concentration vs slow-gamma power increase (healthy volunteers; right frontal electrodes)","Cohen's d, plasma concentration vs slow-gamma power increase (healthy volunteers; right parietal electrodes)","Cmax (min—max) [1, 5] [ng/mL]","Tmax (mean ± sd) [1, 5] [min]","Cmax (mean ± sd) [1, 7] [ng/mL]",Clusters between plasma concentration and delta band (healthy volunteers),"Time to reach plateau of plasma level in the group average [1, 8] [min]","Cmax [1, 9] [ng/mL]",also measured
COc1ccc2c(c1)[nH]c1c(C)nccc12 [Harmine],110 ± 138,2.5,21.37 to 2325.28,moderate affinity,"10,000 fold",did not show any significant clusters,0.0312,0.0024,0.1208,–,–,–,–,–,–,"Effects in humans (human subjects; 120 mg orally): barely-perceptible sedative effects; Effects in humans (human subjects; 10 to 20 mg/kg i.m.): effects qualitatively similar to LSD or mescaline; Psychoactive dose (human subjects; i.v.): ≥ 200 mg; Tmax ([1]; from ayahuasca ingestion, group average curve, read-out: Time of peak plasma level in the group average (converted)): 0.833 h; Cohen's d, plasma concentration vs slow-gamma power increase (healthy volunteers; left centro-frontal electrodes (F7, FC5, C5 and C3)): 0.2028; Cohen's d, plasma concentration vs alpha band power decrease (healthy volunteers; left centro-parieto-occipital electrodes): 0.0297; Cohen's d, plasma concentration vs slow-gamma power increase (healthy volunteers; left parieto-occipital electrodes): 0.1797"
"O=C(O)Cc1c[nH]c2ccccc12 [IAA, indoleacetic acid]",–,–,1237.81 to 7726.25,–,–,–,–,–,–,61.35 to 1674.57,175.00 ± 39.79,717.72 ± 454.50,not significant,–,–,"Clusters between plasma concentration and beta band (healthy volunteers; beta band): No significant clusters; Cohen's d, plasma concentration vs alpha band (healthy volunteers; left frontal electrodes): 0.2888; Cohen's d, plasma concentration vs slow-gamma (healthy volunteers; right centro-frontal electrodes (F2, FCz, FC2, FC4)): 0.0052; Cohen's d, plasma concentration vs fast-gamma power increase (healthy volunteers; right frontal electrodes): 0.0737; Cohen's d, plasma concentration vs fast-gamma (healthy volunteers; right parietal electrodes (CP2, Pz, P2, P4)): 0.1428"
"COc1ccc2c3c([nH]c2c1)[C@@H](C)NCC3 [THH, tetrahydroharmine]",–,–,75.01 to 3762.73,moderate affinity,–,did not show any significant clusters,0.0501,0.0366,–,22.62 to 895.70,190.63 ± 42.70,328.76 ± 324.86,–,150,–,"AUC (mean ± sd) [1, 5]: 1262.09 ± 1270.39; Cohen's d, plasma concentration vs slow-gamma power increase (healthy volunteers; bilateral parieto-occipital cluster): 0.0656; Cohen's d, plasma concentration vs alpha band power decrease (healthy volunteers; left fronto-centro-parieto-occipital cluster extending to some right centro-parietal electrodes): 0.0044; Cohen's d, plasma concentration vs slow-gamma power increase (healthy volunteers; left fronto-temporo-central electrodes): 0.0795; Recovery in 24 h urine as THH and THH-OH ([2]; after ingestion of ayahuasca): 9%; Half-life [2]: ~9 h"
COc1ccc2c3c([nH]c2c1)C(C)=NCC3 [Harmaline],14.7 ± 13.9,2.68,6.16 to 199.78,–,"10,000 fold",did not show any significant clusters,0.0032,0.0401,–,–,–,–,–,100,1.56 to 44.4,"Dose necessary for psychoactivity (human subjects; oral or i.v. administration): 4 mg/kg; Orally psychoactive dose (human subjects; oral): 300 to 400 mg; Cohen's d, plasma concentration vs alpha band power decrease (healthy volunteers; left centro-parieto-occipito-frontal electrodes): 0.0285; Cohen's d, plasma concentration vs slow-gamma power increase (healthy volunteers; left fronto-temporo-centro-parieto-occipital electrodes also extending to right temporo-parietal electrodes): 0.0885; Cohen's d, plasma concentration vs alpha band power decrease (healthy volunteers; right central electrodes (C2, C4, CP4 and CP6)): 0.2944; Substitution in drug discrimination (rats): substitute the psychedelic DOM"
"CNCCc1c[nH]c2ccccc12 [NMT, N‐methyltryptamine]",3.1 ± 2.12,2.03,1.52 to 21.69,–,–,–,–,–,0.1538,–,–,–,not significant,–,0.57 to 7.56,"Clusters between plasma concentration and alpha band (healthy volunteers; alpha band): No significant clusters; Cohen's d, plasma concentration vs slow-gamma power increase (healthy volunteers; bilateral frontal electrodes): 0.0822; Cohen's d, plasma concentration vs fast-gamma power increase (healthy volunteers; bilateral fronto-central electrodes): 0.0290; Cohen's d, plasma concentration vs fast-gamma power increase (healthy volunteers; bilateral parieto-occipital electrodes): 0.0911; Cohen's d, plasma concentration vs beta power increase (healthy volunteers; left frontal electrodes (F7, AF7, AF3, AFz)): 0.0863; Cohen's d, plasma concentration vs slow-gamma power increase (healthy volunteers; occipital electrodes (O1, Oz and O2)): 0.2579"
